The values that follow come from patent EP0244728B1, “Use of heteroarylethyl amines to stimulate animal growth, heteroarylethyl amines and process for their preparation” (BAYER AG, priority 1986, dated 1987).

The test is described as follows: Rat feeding trial (Ratten-Fütterungsversuch), Beispiel A. Format: in vivo. Particulars: Dosis 100 ppm in feed ad lib; female SPF Wistar rats, 90-110 g; 13-day trial; control without active substance = 100. The text has this: Weibliche Laborratten 90-110 g schwer vom Typ SPF Wistar (Züchtung Hagemann) werden ad lib mit Standard Rattenfutter, das mit der gewünschten Menge Wirkstoff versetzt ist, gefüttert. Jeder Versuchsansatz wird mit Futter der identischen Charge durchgeführt, so daß Unterschiede in der Zusammensetzung des Futters die Vergleichbarkeit der Ergebnisse nicht beeinträchtigen können.
Die Ratten erhalten Wasser ad lib.
Jeweils 12 Ratten bilden eine Versuchsgruppe und werden mit Futter, das mit der gewünschten Menge Wirkstoff versetzt ist gefüttert. Eine Kontrollgruppe erhält Futter ohne Wirkstoff. Das durchschnittliche Körpergewicht sowie die Streuung in den Körpergewichten der Ratten ist in jeder Versuchsgruppe gleich, so daß eine Vergleichbarkeit der Versuchsgruppen untereinander gewährleistet ist.
Während des 13-tägigen Versuchs werden Gewichtszunahme und Futterverbrauch bestimmt.

Compound `CC(C)(C)NCC(O)c1cc(Cl)nc(Cl)c1` (stereo not shown) [compound 1] gave a Gewichtszunahme of 110.

Compound `CC(C)(C)NCC(O)c1cnc(N)c(Cl)c1` (stereo not shown) [compound 3] returned a Gewichtszunahme of 115. Compound `CC(C)(C)NCC(O)c1ccc(N)c(Cl)n1` (stereo not shown) [compound 6] had a Gewichtszunahme of 110. The same measure for `CC(C)NCC(O)c1ccc(N)cn1` (stereo not shown) [compound 7]: 120.
